Blank lines part the entries; values can stand above or below the compound they belong to.
Assays:
[1] = system: pigweed (Amaranthus retroflexus); experiment: Test C preemergence; format: in vivo; settings: Amaranthus retroflexus, pre-emergence, 336 h, preemergence, scale 0 to 100, read-out: Plant response rating, Pigweed; for pest or weed control at 31 g/ha: 31 g ai/ha; for pest or weed control at 62 g/ha: 62 g ai/ha; for pest or weed control at 125 g/ha: 125 g ai/ha
Outline: (§1)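 After preemergence treatment of seeds in loam-sand soil or foliar treatment at the 1- to 4-leaf stage of plants in peat/vermiculite medium, pots were kept 13-15 days in the greenhouse. Each was then scored visually, 0 meaning no effect and 100 complete control.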

[2] = system: velvetleaf (Abutilon theophrasti); experiment: Test C preemergence; format: in vivo; settings: Abutilon theophrasti, pre-emergence, preemergence, scale 0 to 100, read-out: Plant response rating, Velvetleaf; for pest or weed control at 31 g/ha: 31 g ai/ha; for pest or weed control at 62 g/ha: 62 g ai/ha; for pest or weed control at 125 g/ha: 125 g ai/ha; for pest or weed control at 250 g/ha: 250 g ai/ha
Outline: as §1

[3] = system: Italian ryegrass (Lolium multiflorum); experiment: Test C preemergence; format: in vivo; settings: Lolium multiflorum, pre-emergence, 336 h, preemergence, scale 0 to 100, read-out: Plant response rating, Ryegrass, Italian; for pest or weed control at 31 g/ha: 31 g ai/ha; for pest or weed control at 62 g/ha: 62 g ai/ha; for pest or weed control at 125 g/ha: 125 g ai/ha; for pest or weed control at 250 g/ha: 250 g ai/ha
Outline: as §1

[4] = system: morningglory (Ipomoea coccinea); experiment: Test C preemergence; format: in vivo; settings: Ipomoea, pre-emergence, 336 h, preemergence, scale 0 to 100, read-out: Plant response rating, Morningglory; for pest or weed control at 31 g/ha: 31 g ai/ha; for pest or weed control at 62 g/ha: 62 g ai/ha; for pest or weed control at 125 g/ha: 125 g ai/ha
Outline: as §1

[5] = system: corn (Zea mays); experiment: Test C preemergence; format: in vivo; settings: Zea mays, pre-emergence, 336 h, preemergence, scale 0 to 100; for Corn plant response rating (crop injury, 0 = no effect, 100 = complete kill) at 31 g/ha: 31 g ai/ha; for Corn plant response rating (crop injury, 0 = no effect, 100 = complete kill) at 62 g/ha: 62 g ai/ha; for Corn plant response rating (crop injury, 0 = no effect, 100 = complete kill) at 125 g/ha: 125 g ai/ha
Outline: as §1

[6] = system: soybean (Glycine max); experiment: Test C preemergence; format: in vivo; settings: Glycine max, pre-emergence, preemergence, scale 0 to 100, read-out: Plant response rating, Soybean; for plant injury at 31 g/ha: 31 g ai/ha; for plant injury at 62 g/ha: 62 g ai/ha; for plant injury at 125 g/ha: 125 g ai/ha; for plant injury at 250 g/ha: 250 g ai/ha
Outline: as §1

[7] = system: barnyardgrass (Echinochloa crus-galli); experiment: Test C preemergence; format: in vivo; settings: Echinochloa crus-galli, pre-emergence, preemergence, scale 0 to 100, read-out: Plant response rating, Barnyardgrass; for pest or weed control at 31 g/ha: 31 g ai/ha; for pest or weed control at 62 g/ha: 62 g ai/ha; for pest or weed control at 125 g/ha: 125 g ai/ha; for pest or weed control at 250 g/ha: 250 g ai/ha
Outline: as §1

[8] = system: lambsquarters (Chenopodium album); experiment: Test C preemergence; format: in vivo; settings: Chenopodium album, pre-emergence, 336 h, preemergence, scale 0 to 100, read-out: Plant response rating, Lambsquarters; for pest or weed control at 31 g/ha: 31 g ai/ha; for pest or weed control at 62 g/ha: 62 g ai/ha; for pest or weed control at 125 g/ha: 125 g ai/ha
Outline: as §1

[9] = system: ragweed (common ragweed, Ambrosia elatior); experiment: Test C preemergence; format: in vivo; settings: Ambrosia artemisiifolia, pre-emergence, 336 h, preemergence, scale 0 to 100, read-out: Plant response rating, Ragweed; for pest or weed control at 31 g/ha: 31 g ai/ha; for pest or weed control at 62 g/ha: 62 g ai/ha; for pest or weed control at 125 g/ha: 125 g ai/ha; for pest or weed control at 250 g/ha: 250 g ai/ha
Outline: as §1

[10] = system: blackgrass (Alopecurus myosuroides); experiment: Test C preemergence; format: in vivo; settings: Alopecurus myosuroides, pre-emergence, 336 h, preemergence, scale 0 to 100, read-out: Plant response rating, Blackgrass; for pest or weed control at 31 g/ha: 31 g ai/ha; for pest or weed control at 62 g/ha: 62 g ai/ha; for pest or weed control at 125 g/ha: 125 g ai/ha
Outline: as §1

[11] = system: johnsongrass (Sorghum halepense); experiment: Test C preemergence; format: in vivo; settings: Sorghum halepense, pre-emergence, 336 h, preemergence, scale 0 to 100, read-out: Plant response rating, Johnsongrass; for pest or weed control at 31 g/ha: 31 g ai/ha; for pest or weed control at 62 g/ha: 62 g ai/ha; for pest or weed control at 125 g/ha: 125 g ai/ha
Outline: as §1

[12] = system: waterhemp (common waterhemp, Amaranthus rudis); experiment: Test C preemergence; format: in vivo; settings: Amaranthus tuberculatus, pre-emergence, preemergence, scale 0 to 100, read-out: Plant response rating, Waterhemp; for pest or weed control at 31 g/ha: 31 g ai/ha; for pest or weed control at 62 g/ha: 62 g ai/ha; for pest or weed control at 125 g/ha: 125 g ai/ha; for pest or weed control at 250 g/ha: 250 g ai/ha
Outline: as §1

[13] = system: galium (catchweed bedstraw, Galium aparine); experiment: Test C preemergence; format: in vivo; settings: Galium, pre-emergence, 336 h, preemergence, scale 0 to 100, read-out: Plant response rating, Galium; for pest or weed control at 31 g/ha: 31 g ai/ha; for pest or weed control at 62 g/ha: 62 g ai/ha; for pest or weed control at 125 g/ha: 125 g ai/ha
Outline: as §1

[14] = system: yellow nutsedge (Cyperus esculentus); experiment: Test C preemergence; format: in vivo; settings: Cyperus, pre-emergence, 336 h, preemergence, scale 0 to 100, read-out: Plant response rating, Nutsedge, Yellow; for pest or weed control at 31 g/ha: 31 g ai/ha; for pest or weed control at 62 g/ha: 62 g ai/ha; for pest or weed control at 125 g/ha: 125 g ai/ha
Outline: as §1

melting point: 166 to 169 °C
SMILES: Clc1cnc(Oc2cccc(Cl)c2Oc2ncc(Br)cn2)nc1 [Compound 17, 5-bromo-2-[2-chloro-6-[(5-chloro-2-pyrimidinyl)oxy]phenoxy]pyrimidine]
pest or weed control at 31 g/ha [1]: 100%
pest or weed control at 62 g/ha [1]: 100%
pest or weed control at 125 g/ha [1]: 100%
pest or weed control at 31 g/ha [2]: 65%
pest or weed control at 62 g/ha [2]: 95%
pest or weed control at 125 g/ha [2]: 100%
pest or weed control at 250 g/ha [2]: 100%
pest or weed control at 31 g/ha [3]: 20%
pest or weed control at 62 g/ha [3]: 40%
pest or weed control at 125 g/ha [3]: 90%
pest or weed control at 250 g/ha [3]: 95%
pest or weed control at 31 g/ha [4]: 40%
pest or weed control at 62 g/ha [4]: 60%
pest or weed control at 125 g/ha [4]: 98%
Corn plant response rating (crop injury, 0 = no effect, 100 = complete kill) at 31 g/ha [5]: 0%
Corn plant response rating (crop injury, 0 = no effect, 100 = complete kill) at 62 g/ha [5]: 15%
Corn plant response rating (crop injury, 0 = no effect, 100 = complete kill) at 125 g/ha [5]: 55%
plant injury at 31 g/ha [6]: 5%
plant injury at 62 g/ha [6]: 20%
plant injury at 125 g/ha [6]: 45%
plant injury at 250 g/ha [6]: 70%
pest or weed control at 31 g/ha [7]: 20%
pest or weed control at 62 g/ha [7]: 85%
pest or weed control at 125 g/ha [7]: 100%
pest or weed control at 250 g/ha [7]: 100%
pest or weed control at 31 g/ha [8]: 85%
pest or weed control at 62 g/ha [8]: 90%
pest or weed control at 125 g/ha [8]: 95%
pest or weed control at 31 g/ha [9]: 0%
pest or weed control at 62 g/ha [9]: 25%
pest or weed control at 125 g/ha [9]: 55%
pest or weed control at 250 g/ha [9]: 85%
pest or weed control at 31 g/ha [10]: 60%
pest or weed control at 62 g/ha [10]: 90%
pest or weed control at 125 g/ha [10]: 95%
pest or weed control at 31 g/ha [11]: 10%
pest or weed control at 62 g/ha [11]: 50%
pest or weed control at 125 g/ha [11]: 85%
pest or weed control at 31 g/ha [12]: 100%
pest or weed control at 62 g/ha [12]: 100%
pest or weed control at 125 g/ha [12]: 100%
pest or weed control at 250 g/ha [12]: 100%
pest or weed control at 31 g/ha [13]: 90%
pest or weed control at 62 g/ha [13]: 98%
pest or weed control at 125 g/ha [13]: 100%
pest or weed control at 31 g/ha [14]: 0%
pest or weed control at 62 g/ha [14]: 10%
pest or weed control at 125 g/ha [14]: 55%

melting point: 113 to 116 °C
SMILES: Fc1cnc(Oc2c(Br)cccc2Oc2ncc(Cl)cn2)nc1 [Compound 22]
pest or weed control at 31 g/ha [1]: 100%
pest or weed control at 62 g/ha [1]: 100%
pest or weed control at 125 g/ha [1]: 100%
pest or weed control at 31 g/ha [2]: 70%
pest or weed control at 62 g/ha [2]: 98%
pest or weed control at 125 g/ha [2]: 100%
pest or weed control at 250 g/ha [2]: 100%
pest or weed control at 31 g/ha [3]: 5%
pest or weed control at 62 g/ha [3]: 30%
pest or weed control at 125 g/ha [3]: 80%
pest or weed control at 250 g/ha [3]: 90%
pest or weed control at 31 g/ha [4]: 0%
pest or weed control at 62 g/ha [4]: 65%
pest or weed control at 125 g/ha [4]: 95%
Corn plant response rating (crop injury, 0 = no effect, 100 = complete kill) at 31 g/ha [5]: 10%
Corn plant response rating (crop injury, 0 = no effect, 100 = complete kill) at 62 g/ha [5]: 40%
Corn plant response rating (crop injury, 0 = no effect, 100 = complete kill) at 125 g/ha [5]: 80%
plant injury at 31 g/ha [6]: 60%
plant injury at 62 g/ha [6]: 70%
plant injury at 125 g/ha [6]: 90%
plant injury at 250 g/ha [6]: 95%
pest or weed control at 31 g/ha [7]: 60%
pest or weed control at 62 g/ha [7]: 95%
pest or weed control at 125 g/ha [7]: 100%
pest or weed control at 250 g/ha [7]: 100%
pest or weed control at 31 g/ha [8]: 75%
pest or weed control at 62 g/ha [8]: 100%
pest or weed control at 125 g/ha [8]: 100%
pest or weed control at 31 g/ha [9]: 55%
pest or weed control at 62 g/ha [9]: 85%
pest or weed control at 125 g/ha [9]: 90%
pest or weed control at 250 g/ha [9]: 95%
pest or weed control at 31 g/ha [10]: 10%
pest or weed control at 62 g/ha [10]: 60%
pest or weed control at 125 g/ha [10]: 90%
pest or weed control at 31 g/ha [11]: 10%
pest or weed control at 62 g/ha [11]: 30%
pest or weed control at 125 g/ha [11]: 70%
pest or weed control at 31 g/ha [12]: 100%
pest or weed control at 62 g/ha [12]: 100%
pest or weed control at 125 g/ha [12]: 100%
pest or weed control at 250 g/ha [12]: 100%
pest or weed control at 31 g/ha [13]: 98%
pest or weed control at 62 g/ha [13]: 100%
pest or weed control at 125 g/ha [13]: 100%
pest or weed control at 31 g/ha [14]: 0%
pest or weed control at 62 g/ha [14]: 20%
pest or weed control at 125 g/ha [14]: 60%

— US20170190671A1, “BIS(ARYL)CATECHOL DERIVATIVES AS HERBICIDES” (E I DU PONT DE NEMOURS AND COMPANY, priority 2014, published 2017)
